Literature values in patent US5360794A, “Disubstituted and deoxy disubstituted derivatives of α-D-mannofuranosides and β-L-gulofuranosides having anti-inflammatory and anti-proliferative activity” (Medicarb Inc., priority 1992, dated 1994).
Structures can show the parent of a compound that is named as a salt.

Tested on: rheumatoid arthritis
Conditions: late Phase III clinical trials; cited from earlier work

Q: Which “clinical utility in rheumatoid arthritis” value does the source give for `CN(C)CCCO[C@@H]1[C@H]2OC(C)(C)O[C@H]2O[C@@H]1[C@H](O)CO` [Amiprilose HCl, 1,2-O-isopropylidene-3-O-3'-(N', N'-dimethylaminopropyl)-α-D-glucofuranose] here?
A: demonstrated utility in managing the signs and symptoms of rheumatoid arthritis
